Source: US20100055169A1, “CATIONIC LIPIDS AND USES THEREOF” (ABBOTT LABORATORIES, priority 2008, published 2010)
One block for each molecule: values may come before it.

How the values were obtained:
[1] = system: β-galactosidase in tumor sections; assay: IHC analysis of β-galactosidase staining in intraliver tumors after i.v. dosing of Lipid-Based Particles; format: in vivo, Scid female mice; details: intraliver tumor model, Scid mice, tail vein (i.v) injection
Description: The animal studies were carried out in accordance with internal Institutional Animal Care and Use Committee (IACUC) guidelines at Abbott Laboratories. Scid female mice at 6 to 8 weeks of age were obtained from Charles River Laboratory and used for […] tumor models. Mouse livers were exposed by vertical incision on mouse abdomens and the tumor cells were directly injected into the livers. The incision was closed by suture and wound clips. All cell lines used for creating xenograft tumors were subjected to the IMPACT profile I test (18 agents) at the University of Missouri Research Animal Diagnostic and Investigative Laboratory, and all cell lines were found negative for the 18 infectious agents tested. Tumor cells were suspended in a 1:1 mixture of S-MEM (Invitrogen, Carlsbad, Calif.) and matrigel (BD Bioscience, San Jose, Calif.) and inoculated at 1×10E6 cells per animal. Treatments were started 3 4 weeks after tumor inoculation. Formulated or unformulated siRNAs were administrated via tail vein (i.v) injection. IHC was carried out as previously described [Li, L., et al., Evaluating hypoxia-inducible factor-1alpha as a cancer therapeutic target via inducible RNA interference in vivo. Cancer Res, 2005. 65(16): p. 7249-58]. Briefly, tumors were excised, cut into pieces of less than 3 mm in thickness and immediately fixed in buffered formalin solution with neutral pH (Sigma, St. Louis, Mo.). The formalin-fixed and paraffin-embedded tumor sections were then used for staining. The mouse anti-β-galactosidase mAb (Promega, Madison, Wis.) was used to detect β-galactosidase in tumor sections. […] IHC images were acquired using the Nikon TE2000 inverted microscope. The β-galactosidase staining was evaluated by 2 people independently based on the scoring system listed below. The average of the score was calculated for each tumor.

[2] = Particle sizing by dynamic light scattering (DynaPro plate reader), in vitro formulations; format: physicochemical; details: in vitro formulation b: Cationic lipid/PEG-cholesterol/DSPC/Chol 45/10/15/30 wt %, lipid:siRNA 25:1
Description: (§1) The siRNA concentrations were measured using Quanti-iT RiboGreen RNA reagent (Molecular Probes, (R11490)). Vesicle sizes were characterized by dynamic light scattering with a DynaPro™ Plate Reader (Wyatt Technology) in 96-well half-area UV plate (Coring) after diluting the formulation sample (20 μL) in phosphate buffered saline (80 μL) at a pH of about 7-8. A 1% agarose gel-based assay was used for analyzing nuclease degradation and protection. Encapsulation efficiency (EE) was calculated using data obtained from a RiboGreen assay.
Particle sizes and size distributions (PDI) were characterized by using dynamic light scattering (DLS). A DLS plate reader (Dynapro™, Wyatt Technology) was used for the DLS measurement. This DLS plate reader uses an 830 nm laser and the scattering angle is 158°. It also can control temperature from 4° C. to 70° C. A 96-well format was employed for the samples.
Samples for DLS analysis were prepared by mixing 20 μL of each sample stock solution with 80 μL PBS directly in the 96-well plate (#3697, Corning). Sample mixing was accomplished using a microplate shaker (Orbis, Mikura Ltd.). Plates were read at 20° C. with an acquisition time of 50 seconds for each sample, and data was analyzed with Wyatt Technology's Dynamics V6 software. To rule out potential multiple scattering artifacts, a second plate at 4-fold reduced sample concentrations was independently prepared by mixing 5 μL stock solutions with 95 μL PBS. Under our experimental conditions the results at the two concentrations were very similar, and the final reported result for each sample represents the average of values obtained from the two plates.

[3] = Particle sizing assay (Zetasizer Nano ZS), in vivo formulations; format: physicochemical; details: lipid:siRNA 25:1
Description: (§2) A round bottom flask was submerged into a 65° C. water bath. Citrate buffer (37.5 ml) of pH 4.0 was pipetted into the flask. The solution was stirred by a magnetic stirring bar at a speed of 900 rpm. Both the pH 4.0 citrate buffer and the lipid solution were pre-warmed in the 65° C. water bath for about 3 minutes. A siRNA solution (0.5 ml) was pipetted into the pH 4.0 citrate buffer. The 12.5 ml lipid mixture solution was injected through a 27 gauge needle into the citrate buffer in about 30 seconds. The needle tip was inserted into the solution during the injection. The resulting solution was stirred for 5 minutes at a speed of 900 rpm. The flask was pulled up from the water bath and a 50 ml pH 7.4 PBS buffer was added into the flask. The final solution was further mixed at a speed of 900 rpm for 5 minutes. For the diafiltration process, a dialysis filter (Millipore, 100K, Cat#PXB100C50) was used to remove ethanol in the above solution. When the volume was reduced to 20 ml during the initial diafiltration, 20 ml of pH 7.4 PBS was added to the sample solution. The diafiltration was continued until the volume was reduced to 20 ml. The diafiltration process was repeated 4 times. The volume of the sample solution was reduced to about 12 ml and pH 7.4 PBS was added to make the final volume of 15 ml. The 15 ml solution was filtered sequentially through the 0.45 and 0.22 μm sterile PVDF membrane filters (Millipore) and immediately transferred into a sterile vial.
For measurements of particle sizes and size distributions (PDI), lipid-based particles were prepared as described above. The particle solution (60 μL) was pipetted into a disposable cuvette (UVette, Eppendorf, cat#952010051) and measured in the “General Purpose” mode. Attenuator and position were optimized by the device. Measurements were performed using a Zetasizer Nano ZS (Malvern Instruments) equipped with a 4 mW He—Ne laser at a wavelength of 633 nm at 25° C. Scattered light was detected at a 173° backward scattering angle. The viscosity and refractive index of water at 25° C. was used for data analysis with the Dispersion Technology Software 5.00 (Malvern Instruments).

[4] = RiboGreen assay of siRNA encapsulation efficiency, in vivo formulations of Lipid-Based Particles; format: physicochemical; details: lipid:siRNA 25:1
Description: (§3) RNA concentration and encapsulation efficiency were determined using a Quant-iT® Ribogreen RNA reagent and kit available from Invitrogen. The siRNA was released from the Lipid-Based Particle using one of the following reagents: ethanol, Triton X-100, or phenol/chloroform. The siRNA concentration is quantified using fluorescent reading at 480 nm/520 nm.
The lipid solution was prepared (10 mg/ml) by dissolving the lipid in 200 proof ethanol. The lipid mixture solution is prepared according to the above composition in Table 5.
An siRNA (TetR_ODC—12, G.G.G.G.A.A.A.G.C.U.G.G.C.A.A.G.A.U.U.U.U SEQ ID NO: 1) (ThermoFisher) solution is prepared in a concentration of 10 mg/ml by dissolving 10 mg siRNA in 1 ml of DNAse/RNAse-free distilled water.
as §2

[5] = RiboGreen assay of siRNA encapsulation efficiency, in vitro formulations of Lipid-Based Particles; format: physicochemical; details: in vitro formulation b: Cationic lipid/PEG-cholesterol/DSPC/Chol 45/10/15/30 wt %, lipid:siRNA 25:1
Description: The mixing solution of cationic lipids, cholesterol, non-cationic lipids and PEG-lipids was prepared in ethanol (total concentration at 10 mg/mL). siSTABLE (purchased from ThermoFisher) (sense-5′ GGGGAAAGCUGGCAAGAUUUU-3′SEQ ID NO. 1, antisense-5′-AAUCUUGCCAGCUUUCCCCUU-3′ SEQ ID NO: 2) % stock solution was prepared in 10 mg/mL of solution by dissolving 10 mg siRNA in 1 mL of RNAse-free UltraPure Water. The calculated amount of siRNA solution was added to 1 mL of citrate buffer (pH 4.0, 20 mM), to provide an siRNA concentration of 0.2 mg/mL, and warmed to 60 C. The calculated amount of lipid solution was warmed to 60 C, transferred to a 0.5 mL syringe with 28½ gauge needle, and injected into the citrate buffer with stirring at 60 C. After 3 minutes, 3 mL of PBS solution at room temperature (pH 7.4) was added into the lipid mixture with stirring. The Lipid-Based Particle solution was cooled to room temperature.
as §1, §3

[6] = in vivo formulation A: Cationic lipid/Example 73/DSPC/Chol 45/10/15/30 wt %
[7] = in vivo formulation I: Cationic lipid/PEG-DPPE/DSPC/Chol 45/10/15/30 wt %
[8] = in vivo formulation J: Cationic lipid/PEG-DSPE/DSPC/Chol 45/10/15/30 wt %
[9] = in vivo formulation L: Cationic lipid/PEG-DPG/DSPC/Chol 45/10/15/30 wt %
[10] = in vivo formulation C: Cationic lipid/Pal-PEG-Cera/DSPC/Chol 45/10/15/30 wt %

Compound: C[C@H]1c2cccc(O)c2C(=O)C2=C(O)[C@]3(O)C(=O)C(C(N)=O)=C(O)[C@@H](N(C)C)[C@@H]3[C@@H](O)[C@@H]21 [Doxycycline]
In vivo response: β-galactosidase IHC staining score ([1]; column 1): +++ (there was 80% of the section with strong straining)
In vivo response: β-galactosidase IHC staining score ([1]; column 2): +++ (there was 80% of the section with strong straining)
In vivo response: β-galactosidase IHC staining score ([1]; column 3): +++ (there was 80% of the section with strong straining)
In vivo response: β-galactosidase IHC staining score ([1]; column 4): +++ (there was 80% of the section with strong straining)
In vivo response: β-galactosidase IHC staining score ([1]; column 5): +++ (there was 80% of the section with strong straining)
In vivo response: β-galactosidase IHC staining score ([1]; column 6): +++ (there was 80% of the section with strong straining)

Size [2]: 123.2 nm
Size [3, 6]: 140 nm
Size distribution (PDI) [3, 6]: (0.15)
% Encapsulation Efficiency [4, 6]: 74%
% Encapsulation Efficiency [5]: 96.9%
Compound: CCCCC/C=C\C/C=C\CCCCCCCCOCC(CCN(C)CCOC)OCCCCCCCC/C=C\C/C=C\CCCCC (centres unmarked) [Example 7, N-(2-methoxyethyl)-N-methyl-3,4-bis[(9Z,12Z)-octadeca-9,12-dienyloxy]butan-1-amine]

Size [2]: 105.8 nm
Size [3, 6]: 160 nm
Size distribution (PDI) [3, 6]: (0.19)
Size [3, 7]: 93.4 nm
Size distribution (PDI) [3, 7]: (0.069)
Size [3, 8]: 98.1 nm
Size distribution (PDI) [3, 8]: (0.078)
Size [3, 9]: 98.7 nm
Size distribution (PDI) [3, 9]: (0.056)
% Encapsulation Efficiency [4, 6]: 87.5%
% Encapsulation Efficiency [4, 7]: 98%
% Encapsulation Efficiency [4, 8]: 98%
% Encapsulation Efficiency [4, 9]: 98%
% Encapsulation Efficiency [5]: 88.3%
Compound: CCCCC/C=C\C/C=C\CCCCCCCCOCC(CCN(C)CCN(C)C)OCCCCCCCC/C=C\C/C=C\CCCCC (centres unmarked) [Example 9, N-{3,4-bis[(9Z,12Z)-octadeca-9,12-dienyloxy]butyl}-N,N′,N′-trimethylethane-1,2-diamine]

Size [2]: 114.4 nm
Size [3, 6]: 149 nm
Size distribution (PDI) [3, 6]: (0.21)
Size [3, 10]: 101 nm
Size distribution (PDI) [3, 10]: (0.154)
% Encapsulation Efficiency [4, 10]: 97%
% Encapsulation Efficiency [5]: 86.2%
Compound: CCCCC/C=C\C/C=C\CCCCCCCCOCC(CCN1CCC(N(C)C)C1)OCCCCCCCC/C=C\C/C=C\CCCCC (centres unmarked) [Example 17, 1-{3,4-bis[(9Z,12Z)-octadeca-9,12-dienyloxy]butyl}-N,N-dimethylpyrrolidin-3-amine]
